This note sets out measurements from ChEMBL document CHEMBL6074717, “Advancing mitochondrial therapeutics: Synthesis and pharmacological evaluation of pyrazole-based inhibitors targeting the mitochondrial pyruvate carrier” (Eur J Med Chem, 2025).

Data set [1] can be described thus: Inhibition of mitochondrial pyruvate carrier in C57BL/6J mouse cardiac mitochondria assessed as inhibition of pyruvate/malate-induced mitochondrial respiration by steady-state ADP coupled assay. Further details: species or system Heart.
Data set [2] can be described thus: Kinetic solubility of the compound in PBS at pH 7.4 measured after 24 hrs by LC-MS/MS analysis. In kind it is physicochemical. The settings on record: for solubility kinetic at 24 h: PBS, pH 7.4, read-out: Kinetic_solubility; for Kinetic_solubility: buffer, pH 7.4, 24 h.
For data set [3], the system named is LX-2. The experiment in a line: Inhibition of hepatic stellate cell activation in human LX-2 cells assessed as inhibition of TGF-beta-stimulated FN1 gene expression at 10 uM quantitative real-time PCR analysis. It counts as functional, cell-based.
The target of data set [4] is T1, Peroxisome proliferator-activated receptor gamma (Homo sapiens, UniProt P37231).
T1 sequence (P37231 whole entry): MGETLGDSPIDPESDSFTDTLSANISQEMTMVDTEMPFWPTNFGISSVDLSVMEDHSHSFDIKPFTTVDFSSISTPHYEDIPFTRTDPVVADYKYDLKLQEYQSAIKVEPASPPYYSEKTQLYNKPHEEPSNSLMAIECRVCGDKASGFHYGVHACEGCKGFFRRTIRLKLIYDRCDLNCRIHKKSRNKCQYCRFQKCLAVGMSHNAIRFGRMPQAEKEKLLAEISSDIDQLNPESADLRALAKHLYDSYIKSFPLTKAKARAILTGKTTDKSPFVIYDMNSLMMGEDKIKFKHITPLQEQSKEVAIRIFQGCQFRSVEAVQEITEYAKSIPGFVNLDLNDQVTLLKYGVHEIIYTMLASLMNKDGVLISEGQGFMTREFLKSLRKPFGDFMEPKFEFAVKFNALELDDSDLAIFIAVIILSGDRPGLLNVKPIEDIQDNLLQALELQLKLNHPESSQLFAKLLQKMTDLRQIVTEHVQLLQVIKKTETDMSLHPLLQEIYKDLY
The experiment in a line: Agonist activity at Gal4-fused PPAR-gamma (unknown origin) transfected in mouse C2C12 cells assessed as decrease in luciferase activity at 0.2 to 20 uM measured after 24 hrs by Dual-Glo Luciferase assay. It counts as toxicity, cell-based. The settings on record: c2c12, 24 h, dose 0.2-20 µM.

Data set [5] is described as follows: Intrinsic clearance in human liver microsomes at 1 uM in presence of NADPH by LC-MS/MS analysis. In kind it is ADME, Microsome.
Data set [6] concerns LX-2. In words: Inhibition of hepatic stellate cell activation in human LX-2 cells assessed as inhibition of TGF-beta-stimulated […] gene expression at 10 uM quantitative real-time PCR analysis. It counts as functional, cell-based.
Data set [7] can be described thus: Half life in human liver microsomes at 1 uM in presence of NADPH by LC-MS/MS analysis. It counts as ADME, Microsome.
Data set [8] has as its system LX-2. The experiment in a line: Inhibition of hepatic stellate cell activation in human LX-2 cells assessed as inhibition of TGF-beta-stimulated ACTA2 gene expression at 10 uM quantitative real-time PCR analysis. It counts as functional, cell-based.
Data set [9] has as its target T1, Peroxisome proliferator-activated receptor gamma. The experiment in a line: Agonist activity at Gal4-fused PPAR-gamma (unknown origin) transfected in mouse C2C12 cells assessed as decrease in luciferase activity at 10 uM measured after 24 hrs by Dual-Glo Luciferase assay. In kind it is toxicity, cell-based. The settings on record: c2c12, 24 h.

Calls of active or inactive are those of the source. The rule behind the calls is not given here.

As to `N#C/C(=C\c1cn(-c2ccccc2)nc1-c1ccc(Cl)c(Cl)c1)C(=O)O`, the EC50 in data set [1] was found to be 369 nM.
Consider `N#C/C(=C\c1c[nH]nc1-c1cc(C(F)(F)F)cc(C(F)(F)F)c1)C(=O)O`, for which the EC50 in data set [1] is 165 nM.
On the same count and under the same terms, under `N#C/C(=C\c1cn(-c2ccccc2)nc1-c1cccc2ccccc12)C(=O)O` stands 707 nM.
On the same count and under the same terms, as for `N#C/C(=C\c1cn(-c2ccccc2)c2ccccc12)C(=O)O`, the figure is 241 nM.
Turning to `N#C/C(=C\c1c[nH]nc1-c1cccc(F)c1)C(=O)O`, the EC50 in [1] stood at 785 nM.
Consider `COc1ccc(-c2n[nH]cc2/C=C(\C#N)C(=O)O)cc1OC`, for which the EC50 in [1] was found to be 808 nM.
Same read-out and setting: as for `CS(=O)(=O)c1ccc(-c2n[nH]cc2/C=C(\C#N)C(=O)O)cc1`, the figure is 18300 nM.
In the case of `N#C/C(=C\c1c[nH]nc1-c1ccc2c(c1)OCO2)C(=O)O`, the EC50 in data set [1] is 435 nM.
Take `N#C/C(=C\c1c[nH]nc1-c1ccc(Cl)c(Cl)c1)C(=O)O`: the solubility kinetic at 24 h in data set [2] was at least 100 µM. Also, the inhibition entry in [3], in [6] and in data set [8] was “Active” each time. Also, the Activity entry in data set [4] was “Not_active”. Also, the Intrinsic clearance in [5] amounted to 3 µL/min/mg. Besides, in data set [7], the t1/2 is above 2 h. In data set [1], the EC50 stood at 107 nM.
In the case of `Cc1cccc(-c2n[nH]cc2/C=C(\C#N)C(=O)O)c1`, the 50% effective concentration (EC50) in data set [1] came to 550 nM.
Regarding `CCOC(=O)/C(C#N)=C/c1c[nH]nc1-c1ccc(Cl)c(Cl)c1`, the Kinetic_solubility in [2] was 4.8 µM. For the same compound, the Intrinsic clearance in data set [5] was found to be 377 µL/min/mg. The t1/2 in data set [7] worked out at 0.03 h. The EC50 in data set [1] was 3890 nM.
Consider `N#C/C(=C\c1cn(Cc2ccccc2)nc1-c1ccc2ccccc2c1)C(=O)O`, for which, in data set [1], the EC50 was determined as 1290 nM.
On the same count and under the same terms, under `CCc1ccc(-c2n[nH]cc2/C=C(\C#N)C(=O)O)cc1` stands 614 nM.
Still for that read-out and setting: as for `N#C/C(=C\c1c[nH]nc1-c1ccc(C(F)(F)F)cc1)C(=O)O`, the figure is 543 nM.
On to `N#C/C(=C\c1c[nH]nc1-c1ccc(Cl)cc1)C(=O)O`, for which the concentration for a half-maximal effect (EC50) in data set [1] came out at 796 nM.
The same measure, in the same setting: as for `N#C/C(=C\c1c[nH]nc1-c1cc2ccccc2s1)C(=O)O`, the figure is 552 nM; as for `N#C/C(=C\c1c[nH]nc1-c1ccc(-c2ccccc2)cc1)C(=O)O`, 919 nM.
Take `N#C/C(=C\c1c[nH]nc1-c1ccccc1)C(=O)O`: the EC50 in [1] turned out to be 796 nM.
In the case of `N#C/C(=C\c1c[nH]nc1-c1cccc(C(F)(F)F)c1)C(=O)O`, the solubility kinetic at 24 h in data set [2] is at least 100 µM. In addition, the Activity entry in [4] is reported as “Not_active”. In [5], the Intrinsic clearance was determined as 3 µL/min/mg. Also, the t1/2 in [7] was above 2 h. In addition, the EC50 in data set [1] turned out to be 108 nM.
Take `N#C/C(=C\c1c[nH]nc1-c1ccccc1Cl)C(=O)O`: the EC50 in [1] was 516 nM.
Still for that read-out and setting: under `N#C/C(=C\c1c[nH]nc1-c1ccccc1C(F)(F)F)C(=O)O` stands 258 nM; under `N#C/C(=C\c1c[nH]nc1-c1ccc(Br)cc1)C(=O)O`, 344 nM; under `CC(C)(C)OC(=O)/C(C#N)=C/c1c[nH]nc1-c1ccc(Cl)c(Cl)c1`, 8710 nM.
For the compound `N#C/C(=C\c1c[nH]nc1-c1ccc(F)c([N+](=O)[O-])c1)C(=O)O`, the concentration for a half-maximal effect (EC50) in data set [1] was 810 nM.
As to `CC(C)(C)c1ccc(-c2n[nH]cc2/C=C(\C#N)C(=O)O)cc1`, in [1], the concentration giving a half-maximal response (EC50) stood at 447 nM.
Regarding `N#C/C(=C\c1c[nH]nc1-c1cccc(Br)c1)C(=O)O`, the Kinetic_solubility in data set [2] came out at 0.2 µM. The Intrinsic clearance in data set [5] was found to be 3 µL/min/mg. For the same compound, in [7], the t1/2 is above 2 h. Besides, in [1], the EC50 is 444 nM.
Regarding `N#C/C(=C\c1c[nH]nc1-c1cccs1)C(=O)O`, the EC50 in data set [1] was found to be 374 nM.
The same measure, in the same setting: under `N#C/C(=C\c1c[nH]nc1-c1cccnc1)C(=O)O` stands 7770 nM.
On the same count and under the same terms, as for `N#C/C(=C\c1c[nH]nc1-c1ccc([N+](=O)[O-])cc1)C(=O)O`, the figure is 4120 nM; as for `N#C/C(=C\c1c[nH]nc1-c1ccc(Cl)cc1Cl)C(=O)O`, 1080 nM.
`N#C/C(=C\c1c[nH]nc1-c1cc(Cl)ccc1Cl)C(=O)O`: in data set [1], the EC50 turned out to be 504 nM.
Same read-out and setting: under `N#C/C(=C\c1cn(-c2ccccc2)nc1-c1ccc2ccccc2c1)C(=O)O` stands 789 nM.
For the compound `COc1ccc(-c2n[nH]cc2/C=C(\C#N)C(=O)O)cc1F`, in [1], the EC50 is 568 nM.
In the case of `N#C/C(=C\c1c[nH]nc1-c1cccc2ccccc12)C(=O)O`, the EC50 in [1] was determined as 273 nM.
The same measure, in the same setting: as for `N#C/C(=C\c1cn(Cc2ccccc2)nc1-c1ccc(Cl)c(Cl)c1)C(=O)O`, the figure is 722 nM.
As for `CN(CCOc1ccc(CC2SC(=O)NC2=O)cc1)c1ccccn1` (stereo not given) [ROSIGLITAZONE], in data set [9], the result was Active.
With `COc1ccc(-c2n[nH]cc2/C=C(\C#N)C(=O)O)c(F)c1`, the EC50 in data set [1] came to 659 nM.
As for `N#C/C(=C\c1c[nH]nc1-c1ccccc1F)C(=O)O`, in data set [1], the EC50 amounted to 791 nM.
`N#C/C(=C\c1c[nH]nc1-c1cc(Br)cc(Br)c1)C(=O)O` had a Kinetic_solubility in data set [2] of 22 µM. Moreover, the Activity entry in [4] is given as “Not_active”. Moreover, the Intrinsic clearance in data set [5] was 45 µL/min/mg. Moreover, the t1/2 in data set [7] was determined as 0.257 h. In addition, the inhibition entry in [8] is “Active”. Further, in data set [1], the concentration giving a half-maximal response (EC50) was 70 nM.
Take `N#C/C(=C\c1c[nH]nc1-c1ccc(F)cc1)C(=O)O`: the EC50 in data set [1] was found to be 651 nM.
Still for that read-out and setting: as for `Cc1ccccc1-c1n[nH]cc1/C=C(\C#N)C(=O)O`, the figure is 659 nM; as for `COc1ccccc1-c1n[nH]cc1/C=C(\C#N)C(=O)O`, 568 nM.
Turning to `CC(C)(C)OC(=O)/C(C#N)=C/c1c[nH]nc1-c1cccc(C(F)(F)F)c1`, the Kinetic_solubility in data set [2] came to 24.4 µM. The Intrinsic clearance in [5] came out at 2 µL/min/mg. In data set [7], the t1/2 was above 2 h. In addition, the concentration giving a half-maximal response (EC50) in data set [1] is 12000 nM.
Consider `COc1cccc(-c2n[nH]cc2/C=C(\C#N)C(=O)O)c1`, for which the EC50 in data set [1] turned out to be 927 nM.
Same read-out and setting: under `CCn1cc(/C=C(\C#N)C(=O)O)c(-c2ccc(Cl)c(Cl)c2)n1` stands 390 nM.
Take `N#C/C(=C\c1c[nH]nc1-c1ccc2ccccc2c1)C(=O)O`: in data set [2], the solubility kinetic at 24 h was at least 100 µM. For the same compound, the inhibition result in [3], in data set [6] and in [8] was “Active” in each case. In addition, the Activity entry in data set [4] was “Not_active”. The Intrinsic clearance in data set [5] came out at 10 µL/min/mg. The t1/2 in data set [7] was determined as 1.15 h. Besides, in data set [1], the EC50 came to 212 nM.
In the case of `N#C/C(=C\c1c[nH]nc1-c1cccc(Cl)c1)C(=O)O`, in data set [1], the EC50 was 650 nM.
Same read-out and setting: under `COc1ccc(-c2n[nH]cc2/C=C(\C#N)C(=O)O)cc1` stands 795 nM.
